In patent US4129737A, “Process for the preparation of an 8-alkyl-5-oxo-5,8-dihydro-pyrido(2,3-d)pyrimidine-6-carboxylic acid” (priority 1972, dated 1978):
≈ marks a conversion by molar mass, not a printed value. Like-named read-outs stand apart in the source and are kept apart here.

Assays:
Staphylococcus 209 P = experiment: Minimum inhibitory concentration by agar dilution, Staphylococcus 209 P; format: cell-based; settings: Staphylococcus, 37° C., 18 hours, read-out: minimum inhibitory concentration (M.I.C.)
Method: (§1) (a) Trypticase soya medium (T.S.A.), which is very suitable for culturing the majority of microorganisms; it has the following composition:
(§2) (b) Ordinarily nutrient agar (N.A.), which is less rich in nutrients, corresponds to the following formulation: […]
(§3) Table I gives the minimum inhibitory concentrations (expressed in μg/cm^3) for the various microorganisms tested on each medium.
(§4) The products were tested on three Gram positive microorganisms (1 to 3) […] and on 10 Gram negative microorganisms (4 to 13).
(§5) Table (II) gives the minimum inhibitory concentrations of the compounds of Examples XII to XVI, determined on the agar medium, N.A., and expressed in μg/cm^3.

Streptococcus = experiment: Minimum inhibitory concentration by agar dilution, Streptococcus Group A; format: cell-based; settings: 37° C., 18 hours, read-out: minimum inhibitory concentration (M.I.C.)
Method: as §1, §2, §3, §4, §5

B. pyocyaneus TUR = experiment: Minimum inhibitory concentration by agar dilution, B. pyocyaneus TUR; format: cell-based; settings: Pseudomonas aeruginosa, 37° C., 18 hours
Method: as §1, §2, §3, §4

Esch. Coli 95 = experiment: Minimum inhibitory concentration by agar dilution, Esch. Coli 95; format: cell-based; settings: Escherichia coli, 37° C., 18 hours, read-out: minimum inhibitory concentration (M.I.C.)
Method: as §1, §2, §3, §4, §5

Pr. vulgaris = experiment: Minimum inhibitory concentration by agar dilution, Pr. vulgaris; format: cell-based; settings: Proteus vulgaris, 37° C., 18 hours, read-out: minimum inhibitory concentration (M.I.C.)
Method: as §1, §2, §3, §4, §5

Pr. mirabilis = experiment: Minimum inhibitory concentration by agar dilution, Pr. mirabilis; format: cell-based; settings: Proteus mirabilis, 37° C., 18 hours, read-out: minimum inhibitory concentration (M.I.C.)
Method: as §1, §2, §3, §4, §5

Pr. morganii = experiment: Minimum inhibitory concentration by agar dilution, Pr. morganii; format: cell-based; settings: Morganella morganii, 37° C., 18 hours, read-out: minimum inhibitory concentration (M.I.C.)
Method: as §1, §2, §3, §4, §5

Esch 111 B4 = experiment: Average MIC, solid medium (nutrient agar) dilution method; format: cell-based; settings: 18 h, average of five determinations, read-out: minimum inhibitory concentration, average
Salm. typhi 0901 = experiment: as above; format: cell-based; settings: Salmonella enterica, 18 h, read-out: minimum inhibitory concentration, average
Sh. sonnei I.P.S. = experiment: as above; format: cell-based; settings: Shigella sonnei, 18 h, average of five determinations, read-out: minimum inhibitory concentration, average
[1] = system: Gram-negative microorganisms; experiment: In vitro anti-microbial activity on agar media, overall; format: cell-based
Method: as §4

rats = experiment: Oral toxicity in rats; format: in vivo; settings: doses as high as 4 g per kilogram
[2] = Absorption and elimination after oral administration; format: in vivo
Staphylococcus 9144 = experiment: Average MIC, solid medium (nutrient agar) dilution method; settings: Staphylococcus, 9144, 18 h, read-out: minimum inhibitory concentration, average
Staphylococcus SIM = experiment: as above; settings: 18 h, read-out: minimum inhibitory concentration, average
Streptococcus A561 = experiment: as above; settings: A561, 18 h, read-out: minimum inhibitory concentration, average
Streptococcus DM19 = experiment: as above; settings: DM19, 18 h, read-out: minimum inhibitory concentration, average
B. subtilis 6633 = experiment: as above; settings: Bacillus subtilis, 6633, 18 h, read-out: minimum inhibitory concentration, average
Bord. bronch. 4617 = experiment: as above; settings: 18 h, read-out: minimum inhibitory concentration, average
Ps. aeruginosa 72-345 = experiment: as above; settings: Pseudomonas aeruginosa, 72345, 18 h, read-out: minimum inhibitory concentration, average
Esch. coli. 54-127 OMS = experiment: as above; settings: Escherichia coli, 18 h, read-out: minimum inhibitory concentration, average
Esch. coli. LRB 45 = experiment: as above; settings: Escherichia coli, 18 h, read-out: minimum inhibitory concentration, average
Klebs. pneumoniae 10.031 = experiment: as above; settings: Klebsiella pneumoniae, 10.031, 18 h, read-out: minimum inhibitory concentration, average
S. oranienburg 10-66 = experiment: as above; settings: Salmonella enterica, 1066, 18 h, read-out: minimum inhibitory concentration, average
Pr. vulgaris 12-53 = experiment: as above; settings: Proteus vulgaris, 1253, 18 h, read-out: minimum inhibitory concentration, average
Pr. mirabilis Nig = experiment: as above; settings: Proteus mirabilis, 18 h, read-out: minimum inhibitory concentration, average
Pr. morganii A 236 = experiment: as above; settings: Morganella morganii, A236, 18 h, read-out: minimum inhibitory concentration, average
[3] = N.A. (nutrient agar, pH 6.8), Table I
[4] = T.S.A. (trypticase soya medium, pH 7.3)

CCn1cc(C(=O)O)c(=O)c2cnc(N3CCNCC3)nc21 [Example VIII, 2-Piperazino-5-oxo-8-ethyl-5,8-dihydro-pyrido(2,3-d)pyrimidine-6-carboxylicacid]
MIC (Staphylococcus 209 P; [3]): 12.5 µg/mL (≈ 41.2 µM) | MIC (Staphylococcus 209 P; [4]): 12.5 µg/mL (≈ 41.2 µM) | MIC (Streptococcus; [3]): 25 µg/mL (≈ 82.4 µM) | MIC (Streptococcus; [4]): 25 µg/mL (≈ 82.4 µM) | MIC (B. pyocyaneus TUR; [3]): 25 µg/mL (≈ 82.4 µM) | MIC (B. pyocyaneus TUR; T.S.A. (trypticase soya medium, pH 7.3), read-out: minimum inhibitory concentration (M.I.C.)): > 100 µg/mL | MIC (Esch. Coli 95; [3]): 0.8 µg/mL (≈ 2.64 µM) | MIC (Esch. Coli 95; [4]): 0.8 µg/mL (≈ 2.64 µM) | MIC (Pr. vulgaris; [3]): 6.2 µg/mL (≈ 20.4 µM) | MIC (Pr. vulgaris; [4]): 1.6 µg/mL (≈ 5.27 µM) | MIC (Pr. mirabilis; [3]): 0.8 µg/mL (≈ 2.64 µM) | MIC (Pr. mirabilis; [4]): 0.8 µg/mL (≈ 2.64 µM) | MIC (Pr. morganii; [3]): 0.8 µg/mL (≈ 2.64 µM) | MIC (Pr. morganii; [4]): 0.8 µg/mL (≈ 2.64 µM) | MIC (Esch 111 B4): 1.64 µg/mL (≈ 5.41 µM) | MIC (Salm. typhi 0901): 2.06 µg/mL (≈ 6.79 µM) | MIC (Sh. sonnei I.P.S.): 0.56 µg/mL (≈ 1.85 µM) | activity against Gram-negative microorganisms ([1]; in vitro): particularly active against Gram-negative microorganisms | activity compared with nalidixic acid and the acid of Example III ([1]; majority of the Gram negative microorganisms, Table III): more active on the majority of the Gram negative microorganisms than the 2 other substances | deaths (rats): no deaths were observed | absorption [2]: absorbed rapidly | elimination [2]: eliminated principally in the urine | urinary concentrations relative to minimum inhibitory concentrations ([2]; even with low doses, majority of Gram negative microorganisms): very much greater than the minimum inhibitory concentrations | MIC (Staphylococcus 9144): 6.22 µg/mL (≈ 20.5 µM) | MIC (Staphylococcus SIM): 12.5 µg/mL (≈ 41.1 µM) | MIC (Streptococcus A561): 13.7 µg/mL (≈ 45.3 µM) | MIC (Streptococcus DM19): 100 µg/mL (≈ 330 µM) | MIC (B. subtilis 6633): 8.1 µg/mL (≈ 26.7 µM) | MIC (Bord. bronch. 4617): 75 µg/mL (≈ 247 µM) | MIC (Ps. aeruginosa 72-345): 13.7 µg/mL (≈ 45.3 µM) | MIC (Esch. coli. 54-127 OMS): 5.66 µg/mL (≈ 18.7 µM) | MIC (Esch. coli. LRB 45): 2.04 µg/mL (≈ 6.73 µM) | MIC (Klebs. pneumoniae 10.031): 1.88 µg/mL (≈ 6.2 µM) | MIC (S. oranienburg 10-66): 27.5 µg/mL (≈ 90.7 µM) | MIC (Pr. vulgaris 12-53): 0.36 µg/mL (≈ 1.19 µM) | MIC (Pr. mirabilis Nig): 1.58 µg/mL (≈ 5.21 µM) | MIC (Pr. morganii A 236): 0.4 µg/mL (≈ 1.32 µM)
